Results taken from publication PMC9503446, “Effects of Medicinal Leech-Related Cationic Antimicrobial Peptides on Human Blood Cells and Plasma” (Molecules, 2022).
Read-outs that look alike come from different tables or passages of the source. No end group written: not given here.

Assays:
[1] = test system: erythrocytes; test: Hemolysis assay, erythrocytes in PBS; assay type: cell-based, human; details: 0.5 h, 37 °C
Protocol: Erythrocytes were incubated (0.5 h, 37 °C) with different CAMP concentrations ranging from 6.25 μM to 100 μM. Incubation conditions chosen were similar to those used in other studies. Following incubation, the samples were centrifuged, and the supernatant analyzed spectrophotometrically for hemoglobin at 414 nm and 540 nm. Absorption at 414 nm provides higher sensitivity. The results were the same no matter which wavelength was used to monitor for hemoglobin.
(§1) The hemolytic activity of CAMPs was determined using a hemolysis assay measuring hemoglobin released from damaged cells. A working erythrocyte suspension (in PBS) was prepared so that its ten-fold dilution gave an optical density of 0.4 at 800 nm. This working suspension corresponded to a cell density of about 30 × 10^6 cells/mL. Aliquots of 125 μL of CAMP solutions of different concentrations were added to Eppendorf tubes. […] The supernatant (200 μL) was transferred to the wells of a microplate, and the absorbance of hemoglobin was measured by a Thermo Electron Multiskan Ascent microplate reader (Thermo Fisher Scientific Inc., Waltham, MA, USA), with a test wavelength of 414 nm as well as 540 nm and a background wavelength of 690 nm. The hemolysis percentage was calculated using the following equation: Hemolysis (%) = {(sample absorbance − negative control)/(positive control − negative control)} × 100.

[2] = test system: Escherichia coli; test: MIC determination, microtiter dilution; assay type: cell-based, Escherichia coli str. K12 substr. MG1655; details: present study, two-fold dilution series in MHB, 37 °C, 24 h, turbidity at 560 nm, mean of three independent experiments
Protocol: CAMPs were designed and synthesized as described previously in our works. The minimum inhibitory concentrations (MICs) for the Gram-negative bacterium Escherichia coli and Gram-positive bacterium Bacillus subtilis were determined earlier or in the present study. The MIC values for Escherichia coli were the same or higher than those for Bacillus subtilis. The CAMP concentrations tested were in the range up to 100 μM.
Escherichia coli str. K12 substr. MG1655 (Invitrogen) and Bacilus subtilis str. 168HT (Vavilov Institute of General Genetics, Russian Academy of Sciences, Moscow, Russia) were grown in Luria–Bertani broth (Difco, BD Difco, Thermo Fisher Scientific Inc., Waltham, MA, USA) according to standard procedure. Bacteria were stored with 10% glycerol at −70 °C until use. MIC determination was carried out by growing bacteria in 96-well microtitration plates in the presence of a two-fold dilution series of the peptide using the standard microtiter dilution method. Briefly, single bacterial clones were cultured overnight in Mueller–Hinton broth (MHB, BD Difco, Thermo Fisher Scientific Inc., Waltham, MA, USA) at 150 rpm and 37 °C, then transferred to fresh MHB and cultured until the logarithmic growth phase. […] After incubation at 37 °C for 24 h, the antimicrobial susceptibility was estimated by turbidity measurement at 560 nm using a microplate reader. […]

[3] = preparation of 2 mM stock solution; dissolved with PBS containing 4% DMSO
Protocol: First, 2 mM stock solutions of CAMPs were prepared in PBS, except for the CAMPs pept_1 and pept_2. […] Its 2 mM solution was made up using PBS containing 4% DMSO (PBS/DMSO), which gave a final DMSO concentration not higher than 0.2% in any of experiments. […] Therefore, negative controls containing relevant concentrations of DMSO were run for pept_1 and pept_2, and DMSO contribution was eliminated by subtracting the measured value in the negative control samples from that in the test samples.

[4] = test system: erythrocytes; test: Hemolysis assay in the presence of human serum albumin (HSA); assay type: cell-based; details: 50 μM peptide, 50 μM HSA, 0.5 h, 37 °C
Protocol: Given that the normal HSA concentration in plasma is 500–700 μM and the dilution of plasma in the final, cell-containing samples was 1:10, a final HSA concentration of 50 μM was applied. Then, 100 μM CAMP working solutions were made up in PBS or PBS containing 100 μM or 70 μM HSA to give final concentrations of 50 μM CAMP and 50 μM or 35 μM HSA.
as §1

[5] = test system: mononuclear cells; test: LDH release cytolysis assay, mononuclear cells; details: 50 μM peptide, PBS, 0.5 h, 37 °C; Lysis solution = 100%
Protocol: (§2) The disruptive effect of peptides on the plasma membrane of mononuclear cells and neutrophils was evaluated by the leakage of lactate dehydrogenase (LDH) from damaged cells. Experiments were run in PBS as a medium without calcium and magnesium ions, not to favor neutrophil and monocyte activation.
(§3) Aliquots of cell suspension without or with CAMPs at different concentrations were incubated at 37 °C for 0.5 h. Then, the assay steps were carried out. In each experiment, there were both mononuclear cells and neutrophils from the same healthy subject.
(§4) The cytolytic activity of CAMPs against mononuclear cells and neutrophils was determined using a lactate dehydrogenase (LDH) assay measuring LDH released upon cell lysis. Working cell suspensions in PBS supplemented with […] glucose were adjusted to an optical density of 0.12 at 800 nm, which corresponded to a cell density of about 600 × 10^3 cells/mL. LDH assay was performed using a Cytotoxicity Detection Kit^PLUS (LDH) (Roche Diagnostics, Mannheim, Germany) according to the manufacturer’s protocol. Then, 50 μL aliquots of CAMP solutions of different concentrations were placed in the wells of a microplate. The medium used for preparing CAMP solutions and the kit’s Lysis solution served for negative and positive controls, respectively. […]

[6] = test system: blood plasma coagulation (extrinsic and common pathways); test: Plasma coagulation assay, prothrombin time (PT); set-up: species or system human; details: 25, 50, 100 μM peptide in plasma
Protocol: (§5) Plasma samples (50 μL) were incubated for 15 min at room temperature with 0, 25, 50 or 100 μM CAMP, and then the coagulation assay steps were carried out according the manufacturer’s instructions.
(§6) The plasma coagulation tests were performed using an APG4-03-Pkh hemostasis analyzer (EMCO Llc, Moscow, Russia) and MLT-APTT and MLT-THROMBOPLASTIN reagent kits (MLT Llc, Moscow, Russia) according to the manufacturer’s instructions. Testing was performed on Plasma N (normal), a mixed pool of citrate anticoagulated plasma obtained from healthy donors, manufactured by RENAM Rpd, Moscow, Russia. Fifty microliter plasma samples supplemented with CAMPs at different concentrations (or with PBS as control) were pre-incubated at room temperature for 15 min. Afterward, in case of measuring activated partial thromboplastin time (APTT), 50 μL of APTT Reagent were added. The samples were warmed at 37 °C for 3 min, and 50 μL of Calcium Chloride Solution were added to initiate fibrin clot formation. For measuring prothrombin time (PT), pre-incubated plasma samples were warmed at 37 °C for 1 min, and fibrin clot formation was triggered by adding 100 μL of Thromboplastin Reagent.

[7] = test system: erythrocytes; test: Hemolysis assay in the presence of autologous plasma; assay type: cell-based, human
Protocol: The interaction with blood plasma constituents is known to play an important role in the pharmacokinetics and effectiveness of therapeutic agents. For CAMPs, the binding in plasma could decrease their effective concentration at the site of action and, thereby, their antimicrobial activity. To elucidate whether CAMP interaction with cells is affected by plasma, presumably through CAMP binding, we performed the hemolysis assay. The erythrocyte suspension was added to the same volume of PBS containing CAMP at two times the final concentration or PBS containing both CAMP and 20% autologous plasma. Calculations for extracellular hemoglobin were made based on the negative and positive control samples containing or not containing plasma.
as §1, with “cells.” for “cells. A working erythrocyte suspension (in PBS) was prepared so that its ten-fold dilution gave an optical density of 0.4 at 800 nm. This working suspension corresponded to a cell density of about 30 × 10^6 cells/mL. Aliquots of 125 μL of CAMP solutions of different concentrations were added to Eppendorf tubes.”

[8] = test system: neutrophils; test: LDH release cytolysis assay, neutrophils; details: 50 μM peptide, PBS, 0.5 h, 37 °C; Lysis solution = 100%
Protocol: as §2, §3, §4

[9] = test system: isolated neutrophils; test: Luminol-dependent chemiluminescence, neutrophil respiratory burst; assay type: cell-based, human; details: final peptide 5 μM or 20 μM, final plasma dilution 1:50, 37 °C
Protocol: Neutrophils and plasma were obtained from the same person. Plasma diluted five times in complete Krebs–Ringer buffer solution was treated with 50 μM or 200 μM CAMP, with plasma dilution and CAMP concentrations being the same as in the samples for hemolysis assay. The final plasma content in samples for CL measurement was restricted to no higher than 2%, since plasma constituents can inhibit luminol-dependent CL due to the scavenging effect. Following the addition of luminol to neutrophils, light emission recording was started. Spontaneous cell activation, if it occurred, was allowed to complete, and then the CAMP-containing plasma or control plasma was added (Figure 6), yielding a final plasma dilution of 1:50 and a final CAMP concentration of 5 μM or 20 μM. […] The effect was dose-dependent (Figure 6).
Chemiluminescence study was conducted at 37 °C with a Lum-1200 chemiluminometer (DISoft Llc, Moscow, Russia) measuring the intensity of emitted light in volts. Assays were performed with the following components in a total volume of 500 μL:435 μL of neutrophil suspension (final, 0.5 × 10^6 cells/mL) in complete Krebs–Ringer buffer solution, 10 μL of luminol (final, 200 μM), 50 μL of five-fold diluted (in the above buffer solution) autologous plasma containing or not containing CAMP at a desired concentration, 5 μL of PMA (final, 160 nM).
Neutrophils were placed in chemiluminometer cuvettes and equilibrated at 37 °C in the cuvette holder, after which luminol was added to each sample and the light emission was continuously recorded. In desired time intervals, plasma mixed with CAMP (or control plasma) and then PMA were added.

[10] = test system: blood plasma coagulation (intrinsic and final common pathways); test: Plasma coagulation assay, activated partial thromboplastin time (APTT); set-up: species or system human; details: 25, 50, 100 μM peptide in plasma
Protocol: as §5, §6

[11] = test system: neutrophils in whole blood; test: Neutrophil extracellular trap (NET) assay in whole blood; assay type: cell-based, human; details: 100 μM peptide, ex vivo blood, 3 h, 37 °C, no PMA
Protocol: EDTA-anticoagulated capillary blood was obtained via a finger prick. Blood aliquots of 20 μL were placed in 1.5 mL Eppendorf tubes and mixed with 2 μL of a CAMP solution (or 2 μL of PBS in controls). The samples were incubated for 3 h. After the first 1 h, PMA (100 nM final concentration) was added to a part of them, and incubation continued for a further 2 h. Cell settling was prevented by continuous gentle turning the tubes up and down using a Multi Bio RS-24 rotator (Biosan, Riga, Latvia). The blood was retained at the tube bottom by surface tension.
NET counts were performed using standardized blood smears stained by Romanowsky method. The smears were examined using a Motic B microscope (Motic, Xiamen, China). Quantitative assessment of NETs was performed as described previously. NETs among 300–500 leukocytes were counted in the middle third part of the smear, and the NETs-to-leukocyte percentage ratio was calculated. Based on counting results, the number of NETs in 1 μL of blood was calculated. In each experiment, two parallel samples were prepared and three parallel smears were taken from each at each observation point.

[12] = test system: Escherichia coli; details: cited from earlier work
Source text: Table 1 Cationic antimicrobial peptides (CAMPs) used in this study and their characteristics. | column: MIC, μM (E. coli)

FRIMRILRVLK-NH2 [pept_2]
Hemolysis ([1]; 100 μM peptide in PBS, no plasma, Triton X-100 = 100%): 10–15% | MIC (E. coli) [2]: 10 µM

FRIMRILRVLKL-NH2 [pept_1]
EC50 ([1]; hemolysis assay, rough estimate, read-out: Concentration at which 50% lysis was achieved, erythrocytes): 65 µM | Solubility in PBS [3]: poorly soluble in PBS | Inhibition of CAMP-induced hemolysis by HSA [4]: nearly completely

RPILIRVRRIRVI-NH2 (C-terminus assumed) [pept_5]
Lysis of mononuclear cells (LDH release) [5]: about 20% | Effect on PT [6]: not significantly affected | Effect of plasma on CAMP-induced hemolysis ([7]; 50 μM final peptide (100 μM mixed with five-fold diluted plasma)): complete inhibition | Effect of plasma on the hemolytic effect ([7]; 100 μM final peptide, autologous plasma final dilution 1:10, 0.5 h, 37 °C): completely inhibited | Lysis of neutrophils (LDH release) [8]: ~15% | Neutrophil respiratory burst (luminol-dependent chemiluminescence) in response to peptide-pretreated plasma [9]: no development of the respiratory burst | APTT change from the control value [10]: No significant APTT change | NET concentration versus control blood [11]: No significant difference | MIC (E. coli) [12]: 77 µM
